Measurements published in US10174016B2 (BAYER AKTIENGESELLSCHAFT, priority 2014, dated 2019).
Where two headings read alike, the source gives them in different places.

Columns and labels:
human P2X2/3 receptor = human P2X2/3 receptor (Homo sapiens (Human), UniProt P56373+Q9UBL9); assay: Intracellular calcium measurement (FLIPR, Fluo-4) of antagonist activity at human P2X2/3 receptors; assay type: cell-based; details: human P2X2/3, FLIPR calcium assay, agonist α,β-Me-ATP; read-out: hP2X2/3 IC50
In short: (§1)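 Antagonism quantified from peak calcium fluorescence (Fluo-4, FLIPR, 90 sec read) evoked by EC80 α,β-Me-ATP, after a 30 min, 37° C. compound pretreatment in 1% DMSO. Human P2X3- or P2X2/3-expressing cells used; triplicate means fitted for IC50, percent maximal inhibition and Hill coefficient.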

human P2X3 receptor = human P2X3 receptor (Homo sapiens (Human), UniProt P56373); assay: Intracellular calcium measurement (FLIPR, Fluo-4) of antagonist activity at human P2X3 receptors; assay type: cell-based; details: read-out: hP2X3 IC50
In short: as §1

[1] = human P2X3, FLIPR calcium assay, agonist α,β-Me-ATP

human P2X2/3 receptor, sequence (P56373 whole entry): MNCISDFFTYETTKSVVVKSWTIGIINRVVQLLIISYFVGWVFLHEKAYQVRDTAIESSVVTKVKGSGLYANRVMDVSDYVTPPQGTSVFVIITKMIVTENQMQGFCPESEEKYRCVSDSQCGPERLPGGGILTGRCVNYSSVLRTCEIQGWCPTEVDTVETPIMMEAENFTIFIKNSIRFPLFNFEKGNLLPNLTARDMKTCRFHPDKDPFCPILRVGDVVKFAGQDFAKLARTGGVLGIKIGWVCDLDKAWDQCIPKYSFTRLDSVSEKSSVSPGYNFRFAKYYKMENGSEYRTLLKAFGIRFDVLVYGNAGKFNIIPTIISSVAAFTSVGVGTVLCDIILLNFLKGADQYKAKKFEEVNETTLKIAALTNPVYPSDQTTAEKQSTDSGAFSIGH
human P2X2/3 receptor, sequence (Q9UBL9 whole entry): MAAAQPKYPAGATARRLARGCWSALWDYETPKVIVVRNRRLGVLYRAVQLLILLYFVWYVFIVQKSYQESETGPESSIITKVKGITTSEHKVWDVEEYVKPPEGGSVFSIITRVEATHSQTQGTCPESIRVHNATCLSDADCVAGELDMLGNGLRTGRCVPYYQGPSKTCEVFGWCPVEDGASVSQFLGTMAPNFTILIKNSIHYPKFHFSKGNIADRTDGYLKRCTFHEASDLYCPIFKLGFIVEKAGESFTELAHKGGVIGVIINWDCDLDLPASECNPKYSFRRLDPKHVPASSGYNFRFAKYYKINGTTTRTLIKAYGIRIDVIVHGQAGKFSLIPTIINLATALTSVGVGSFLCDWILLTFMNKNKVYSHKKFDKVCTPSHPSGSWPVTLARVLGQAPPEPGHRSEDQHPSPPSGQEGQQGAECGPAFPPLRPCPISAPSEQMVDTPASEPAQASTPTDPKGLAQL
human P2X3 receptor, sequence (P56373 whole entry): as the sequence (P56373 whole entry) above

SMILES | IC50 (human P2X2/3 receptor) | IC50 (human P2X3 receptor; [1]) | IC50 (human P2X3 receptor)
Cc1cnc(-c2cc(OC[C@H]3COCCN3C)cc(C(=O)N[C@H](C)c3cnc(C(F)(F)F)nc3)c2)s1 [Example 360] | 0.455 µM | 0.01 µM | 
Cc1cnc(-c2cc(OC3CCN(C)CC3)cc(C(=O)N[C@H](C)c3cnc(C(F)F)nc3)c2)s1 [Example 215] | 0.992 µM |  | 0.016 µM
Cc1cnc(-c2cc(OC3CN(C)C3)cc(C(=O)N[C@H](C)c3ccc(C(F)(F)F)nn3)c2)s1 [Example 211, 3-[(1-methylazetidin-3-yl)oxy]-5-(5-methyl-1,3-thiazol-2-yl)-N-{(1R)-1-[6-(trifluoromethyl)pyridazin-3-yl]ethyl} benzamide] | ≥ 10 µM | 0.395 µM | 
Cc1ccc([C@@H](C)NC(=O)c2cc(O[C@H]3CCOC3)cc(-c3ncc(C)s3)c2)cn1 [Example 30, N-[(1R)-1-(6-methylpyridin-3-yl)ethyl]-3-(5-methyl-1,3-thiazol-2-yl)-5-[(3S)-tetrahydrofuran-3-yloxy]benzamide] | 0.485 µM | 0.038 µM | 
CC#CCOc1cc(C(=O)N[C@H](C)c2cnc(C(F)(F)F)nc2)cc(-c2ncc(C)s2)c1 [Example 40, 3-(But-2-yn-1-yloxy)-5-(5-methyl-1,3-thiazol-2-yl)-N-[(1R)-1-[2-(trifluoromethyl)pyrimidin-5-yl]ethyl]benzamide] | 0.383 µM | 0.016 µM | 
Cc1ccc(CNC(=O)c2cc(OC[C@H]3CCCO3)cc(-c3ncc(C)s3)c2)nn1 [Example 62, N-[(6-Methylpyridazin-3-yl)methyl]-3-(5-methyl-1,3-thiazol-2-yl)-5-[(2R)-tetrahydrofuran-2-ylmethoxy]benzamide] | 1.44 µM | 0.085 µM | 
Cc1ccc([C@@H](C)NC(=O)c2cc(OC3CCOCC3)cc(-c3ncc(C)s3)c2)cn1 [Example 91, N-[(1R)-1-(6-Methylpyridin-3-yl)ethyl]-3-(5-methyl-1,3-thiazol-2-yl)-5-(tetrahydro-2H-pyran-4-yloxy)benzamide] | 0.133 µM | 0.019 µM | 
Cc1ccc([C@@H](C)NC(=O)c2cc(Oc3ccnc(C)c3)cc(-c3ncc(C)s3)c2)cn1 [Example 107, N-[(1R)-1-(6-methylpyridin-3-yl)ethyl]-3-[(2-methylpyridin-4-yl)oxy]-5-(5-methyl-1,3-thiazol-2-yl)benzamide] | 0.017 µM | 0.009 µM | 
Cc1cnc(CNC(=O)c2cc(OC3CCOCC3)cc(-c3ncc(C)s3)c2)cn1 [Example 83, N-[(5-Methylpyrazin-2-yl)methyl]-3-(5-methyl-1,3-thiazol-2-yl)-5-(tetrahydro-2H-pyran-4-yloxy)benzamide] | 1.16 µM | 0.125 µM | 
Cc1cnc(-c2cc(OC3CC4(CNC4)C3)cc(C(=O)N[C@H](C)c3cnc(C(F)(F)F)nc3)c2)s1 [Example 202, 3-(2-azaspiro[3.3]hept-6-yloxy)-5-(5-methyl-1,3-thiazol-2-yl)-N-{(1R)-1-[2-(trifluoromethyl)pyrimidin-5-yl]ethyl} benzamide] | 1.71 µM | 0.042 µM | 
Cc1cnc(-c2cc(OC[C@@H]3COCCO3)cc(C(=O)N[C@H](C)c3cnc(C(F)(F)F)nc3)c2)s1 [Example 181, 3-[(2S)-1,4-dioxan-2-ylmethoxy]-5-(5-methyl-1,3-thiazol-2-yl)-N-{(1R)-1-[2-(trifluoromethyl)pyrimidin-5-yl]ethyl}benzamide] | 1.18 µM | 0.019 µM | 
C[C@@H](NC(=O)c1cc(OC[C@H]2CCOC2)cc(-c2ncc(C3CCC3)s2)c1)c1cnc(C(F)(F)F)nc1 [Example 123, 3-(5-Cyclobutyl-1,3-thiazol-2-yl)-5-[(3S)-tetrahydrofuran-3-ylmethoxy]-N-{(1R)-1-[2-(trifluoromethyl)pyrimidin-5-yl]ethyl}benzamide] | 0.164 µM | 0.046 µM | 
Cc1cnc(-c2cc(OC[C@@H]3COCCN3C)cc(C(=O)N[C@H](C)c3ccc(C(F)(F)F)nc3)c2)s1 [Example 361, 3-{[(3S)-4-methylmorpholin-3-yl]methoxy}-5-(5-methyl-1,3-thiazol-2-yl)-N-{(1R)-1-[6-(trifluoromethyl)pyridin-3-yl]ethyl}benzamide] | 1.25 µM | 0.014 µM | 
C[C@@H](NC(=O)c1cc(OC[C@@H]2CCCO2)cc(-c2ncc(C3CCC3)s2)c1)c1ccc(C(F)(F)F)nn1 [Example 300, 3-(5-cyclobutyl-1,3-thiazol-2-yl)-5-[(2S)-tetrahydrofuran-2-ylmethoxy]-N-{(1R)-1-[6-(trifluoromethyl)pyridazin-3-yl]ethyl}benzamide] | 0.82 µM | 0.078 µM | 
Cc1cnc(-c2cc(OC[C@@H]3CCOC3)cc(C(=O)N[C@H](C)c3cnc(C(F)(F)F)nc3)c2)s1 [Example 73, 3-(5-Methyl-1,3-thiazol-2-yl)-5-[(3R)-tetrahydrofuran-3-ylmethoxy]-N-[(1R)-1-[2-(trifluoromethyl)pyrimidin-5-yl]ethyl]benzamide] | 0.101 µM | 0.004 µM | 
Cc1ccc(CNC(=O)c2cc(OCC3CC3)cc(-c3ncc(C)s3)c2)nn1 [Example 2, 3-(Cyclopropylmethoxy)-N-[(6-methylpyridazin-3-yl)methyl]-5-(5-methyl-1,3-thiazol-2-yl)benzamide] | 0.251 µM | 0.019 µM | 
Cc1cnc([C@@H](C)NC(=O)c2cc(OC[C@H]3CCCO3)cc(-c3ncc(C)s3)c2)cn1 [Example 64, N-[(1R)-1-(5-methylpyrazin-2-yl)ethyl]-3-(5-methyl-1,3-thiazol-2-yl)-5-[(2R)-tetrahydrofuran-2-ylmethoxy]benzamide] | 0.984 µM | 0.053 µM | 
Cc1ccc(CNC(=O)c2cc(OC[C@H]3CCOC3)cc(-c3ncc(C)s3)c2)nn1 [Example 66, N-[(6-Methylpyridazin-3-yl)methyl]-3-(5-methyl-1,3-thiazol-2-yl)-5-[(3S)-tetrahydrofuran-3-ylmethoxy]benzamide] | 6.29 µM | 0.035 µM | 
Cc1cnc(-c2cc(OC3CCNC(C(F)(F)F)C3)cc(C(=O)N[C@H](C)c3cnc(C(F)(F)F)nc3)c2)s1 (single isomer, unassigned) [Example 208] | 0.089 µM | 0.002 µM | 

The next lines start with results.

IC50 (human P2X2/3 receptor) | IC50 (human P2X3 receptor; [1]) | SMILES | IC50 (human P2X3 receptor)
0.627 µM | 0.033 µM | C[C@@H](NC(=O)c1cc(O[C@H]2CCOC2)cc(-c2ncc(Cl)s2)c1)c1ccc(C(F)(F)F)nn1 [Example 320, 3-(5-chloro-1,3-thiazol-2-yl)-5-[(3S)-tetrahydrofuran-3-yloxy]-N-{(1R)-1-[6-(trifluoromethyl)pyridazin-3-yl]ethyl}benzamide] | 
1.17 µM | 0.024 µM | Cc1cnc(-c2cc(OCC3(F)CN(C)C3)cc(C(=O)N[C@H](C)c3cnc(C(F)(F)F)nc3)c2)s1 [Example 371, 3-[(3-fluoro-1-methylazetidin-3-yl}methoxy]-5-(5-methyl-1,3-thiazol-2-yl)-N-{(1R)-1-[2-(trifluoromethyl)pyrimidin-5-yl]ethyl}benzamide] | 
0.53 µM | 0.081 µM | Cc1ccc([C@@H](C)NC(=O)c2cc(OC[C@@H]3CCOC3)cc(-c3ncc(C(C)C)s3)c2)nn1 [Example 264, N-[(1R)-1-(6-methylpyridazin-3-yl)ethyl]-3-[5-(propan-2-yl)-1,3-thiazol-2-yl]-5-[(3R)-tetrahydrofuran-3-ylmethoxy]benzamide] | 
2.28 µM | 0.044 µM | Cc1cnc(-c2cc(OC3CN(C(C)C)C3)cc(C(=O)N[C@H](C)c3cnc(C(F)(F)F)nc3)c2)s1 [Example 229, 3-(5-Methyl-1,3-thiazol-2-yl)-5-{[1-(propan-2-yl)azetidin-3-yl]oxy}-N-{(1R)-1-[2-(trifluoromethyl)pyrimidin-5-yl]ethyl}benzamide] | 
0.035 µM | 0.008 µM | Cc1ccc([C@@H](C)NC(=O)c2cc(OC3CCN(CC(F)(F)F)CC3)cc(-c3ncc(C)s3)c2)nn1 [Example 311, N-[(1R)-1-(6-methylpyridazin-3-yl)ethyl]-3-(5-methyl-1,3-thiazol-2-yl)-5-{[1-(2,2,2-trifluoroethyl)piperidin-4-yl]oxy}benzamide] | 
3.39 µM | 0.047 µM | Cc1cnc(-c2cc(OC3CC4(C3)CN(C)C4)cc(C(=O)N[C@H](C)c3cnc(C(F)(F)F)nc3)c2)s1 [Example 214, 3-[(2-methyl-2-azaspiro [3.3]hept-6-yl)oxy]-5-(5-methyl-1,3-thiazol-2-yl)-N-{(1R)-1-[2-(trifluoromethyl)pyrimidin-5-yl]ethyl} benzamide] | 
1.25 µM | 0.021 µM | Cc1cnc(-c2cc(OC[C@@H]3COCC(=O)N3C)cc(C(=O)N[C@H](C)c3cnc(C(F)(F)F)nc3)c2)s1 [Example 402, 3-{[(3S)-4-methyl-5-oxomorpholin-3-yl]methoxy}-5-(5-methyl-1,3-thiazol-2-yl)-N-{(1R)-1-[2-(trifluoromethyl)pyrimidin-5-yl]ethyl}benzamide] | 
0.2 µM | 0.006 µM | Cc1cnc(-c2cc(OCC3CNCCC3(F)F)cc(C(=O)N[C@H](C)c3cnc(C(F)(F)F)nc3)c2)s1 (stereo partly drawn) [Example 359, 3-{[4,4-difluoropiperidin-3-yl]methoxy}-5-(5-methyl-1,3-thiazol-2-yl)-N-{(1R)-1-[2-(trifluoromethyl)pyrimidin-5-yl]ethyl}benzamide] | 
0.76 µM | 0.113 µM | Cc1ccc([C@@H](C)NC(=O)c2cc(OC[C@@H]3CCCO3)cc(-c3ncc(C4CCC4)s3)c2)nn1 [Example 285, 3-(5-cyclobutyl-1,3-thiazol-2-yl)-N-[(1R)-1-(6-methylpyridazin-3-yl)ethyl]-5-[(2S)-tetrahydrofuran-2-ylmethoxy]benzamide] | 
0.84 µM | 0.019 µM | Cc1cnc(-c2cc(OC[C@H]3CN(CC(F)F)CCO3)cc(C(=O)N[C@H](C)c3cnc(C(F)(F)F)nc3)c2)s1 [Example 391, 3-{[(2R)-4-(2,2-difluoroethyl)morpholin-2-yl]methoxy}-5-(5-methyl-1,3-thiazol-2-yl)-N-{(1R)-1-[2-(trifluoromethyl)pyrimidin-5-yl]ethyl}benzamide] | 
